Measured values as given in PubChem BioAssay (NCI).
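Each compound was tested at five concentrations against cells in 96-well plates for 48 hours. At the GI50, growth is halved. TGI marks complete inhibition of growth.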

Columns and labels:
Test in all cases: inhibition of tumour cell growth, NCI panel, 48 h
[1] = system: NCI-H460 lung
[2] = system: SR leukemia
[3] = system: SK-OV-3 ovarian
[4] = system: UACC-62 melanoma
[5] = system: HCT-116 colon
[6] = system: MDA-MB-231 breast
[7] = system: KM12 colon
[8] = system: HCT-15 colon
[9] = system: HT29 colon
[10] = system: HL-60(TB) leukemia
[11] = system: SF-295 CNS
[12] = system: OVCAR-5 ovarian
[13] = system: K-562 leukemia
[14] = system: DU-145 prostate
[15] = system: TK-10 renal
[16] = system: MALME-3M melanoma
[17] = system: NCI-H23 lung
[18] = system: RPMI-8226 leukemia
[19] = system: IGROV1 ovarian
[20] = system: NCI-H226 lung
[21] = system: SNB-19 CNS
[22] = system: 786-0 renal
[23] = system: SNB-75 CNS
[24] = system: OVCAR-8 ovarian
[25] = system: SF-268 CNS
[26] = system: HS 578T breast
[27] = system: T-47D breast
[28] = system: MDA-MB-435
[29] = system: MCF7 breast
[30] = system: ACHN renal
[31] = system: RXF 393 renal
[32] = system: SK-MEL-5 melanoma
[33] = system: SF-539 CNS
[34] = system: HOP-92 NSCLC
[35] = system: SN12C renal
[36] = system: HOP-62 NSCLC
[37] = system: U251 CNS
[38] = system: UO-31 renal
[39] = system: SK-MEL-28 melanoma
[40] = system: CCRF-CEM leukemia
[41] = system: UACC-257 melanoma
[42] = system: A549 NSCLC
[43] = system: HCC-2998 colon
[44] = system: M14 melanoma
[45] = system: EKVX NSCLC
[46] = system: A498 renal
[47] = system: COLO 205 colon
[48] = system: SW-620 colon
[49] = system: NCI/ADR-RES ovarian
[50] = system: MOLT-4 leukemia
[51] = system: OVCAR-4 ovarian
[52] = system: NCI-H522 lung
[53] = system: LOX IMVI melanoma
[54] = system: PC-3 prostate
[55] = system: CAKI-1 renal
[56] = system: SK-MEL-2 melanoma
[57] = system: OVCAR-3 ovarian
[58] = system: BT-549 breast

Work on `CN(C)c1ccc(-c2[nH]c(=O)c3ccccc3[n+]2C)cc1` yielded a TGI [1] greater than 100 µM, a TGI [2] greater than 100 µM and a TGI [3] greater than 100 µM. For the same molecule, the TGI [4] was greater than 100 µM, the TGI [5] was greater than 100 µM and the TGI [6] was greater than 100 µM. It also gave a TGI [7] greater than 100 µM, a TGI [8] greater than 100 µM and a TGI [9] greater than 100 µM. It also gave a TGI [10] greater than 100 µM, a TGI [11] greater than 100 µM and a TGI [12] greater than 100 µM. The TGI [13] was greater than 100 µM, the TGI [14] was greater than 100 µM and the TGI [15] was greater than 100 µM. For the same molecule, the TGI [16] was greater than 100 µM, the TGI [17] was greater than 100 µM and the TGI [18] was greater than 100 µM. It also gave a TGI [19] greater than 100 µM, a TGI [20] greater than 100 µM and a TGI [21] greater than 100 µM. It also gave a TGI [22] greater than 100 µM, a TGI [23] greater than 100 µM and a TGI [24] greater than 100 µM. For the same molecule, the TGI [25] was greater than 100 µM, the TGI [26] was greater than 100 µM and the TGI [27] was greater than 100 µM. It also gave a TGI [28] greater than 100 µM, a TGI [29] greater than 100 µM and a TGI [30] greater than 100 µM. For the same molecule, the TGI [31] was greater than 100 µM, the TGI [32] was greater than 100 µM and the TGI [33] was greater than 100 µM. For the same molecule, the TGI [34] was greater than 100 µM, the TGI [35] was greater than 100 µM and the TGI [36] was greater than 100 µM. For the same molecule, the TGI [37] was greater than 100 µM, the TGI [38] was greater than 100 µM and the TGI [39] was greater than 100 µM. For the same molecule, the TGI [40] was greater than 100 µM, the TGI [41] was greater than 100 µM and the TGI [42] was greater than 100 µM. For the same molecule, the TGI [43] was greater than 100 µM, the TGI [44] was greater than 100 µM and the TGI [45] was greater than 100 µM. The TGI [46] was greater than 100 µM, the TGI [47] was greater than 100 µM and the TGI [48] was greater than 100 µM. For the same molecule, the TGI [49] was greater than 100 µM, the TGI [50] was greater than 100 µM and the TGI [51] was greater than 100 µM.

`Cn1nc(-c2cccs2)cc1/N=C(\N)C(C)(C#N)Cc1ccccc1` (configuration not stated) gave a GI50 [1] of 26.7 µM, a TGI [1] of 80.7 µM and a GI50 [2] of 45.2 µM. For the same molecule, the TGI [2] was greater than 100 µM, the GI50 [3] was 44.8 µM and the TGI [3] was greater than 100 µM. For the same molecule, the GI50 [52] was 56.1 µM, the TGI [52] was greater than 100 µM and the GI50 [4] was 22.8 µM. It also gave a TGI [4] of 49.6 µM, a GI50 [5] of 27.2 µM and a TGI [5] greater than 100 µM. It also gave a GI50 [6] of 16.3 µM, a TGI [6] of 39.4 µM and a GI50 [53] of 23.3 µM. For the same molecule, the TGI [53] was 53.3 µM, the GI50 [7] was 29 µM and the TGI [7] was 93.7 µM. The GI50 [8] was 29.3 µM, the TGI [8] was greater than 100 µM and the GI50 [10] was 26.5 µM. It also gave a TGI [10] of 59.5 µM, a GI50 [11] of 26.9 µM and a TGI [11] of 75.7 µM. The GI50 [12] was 31.6 µM, the TGI [12] was 75.8 µM and the GI50 [13] was 33.3 µM. It also gave a TGI [13] greater than 100 µM, a GI50 [54] of 32.4 µM and a TGI [54] of 90.4 µM. The GI50 [14] was 47.6 µM, the TGI [14] was greater than 100 µM and the GI50 [15] was 27.3 µM. The TGI [15] was 91.6 µM, the GI50 [55] was 22.9 µM and the TGI [55] was 60.8 µM. It also gave a GI50 [17] of 27.7 µM, a TGI [17] of 53.9 µM and a GI50 [18] of 15.5 µM. For the same molecule, the TGI [18] was 46.5 µM, the GI50 [19] was 54.2 µM and the TGI [19] was greater than 100 µM. The GI50 [20] was 20.4 µM, the TGI [20] was 58.1 µM and the GI50 [21] was 62.7 µM. The TGI [21] was greater than 100 µM, the GI50 [22] was 39.7 µM and the TGI [22] was greater than 100 µM. For the same molecule, the GI50 [24] was 37.1 µM, the TGI [24] was 98.7 µM and the GI50 [25] was 36.9 µM. It also gave a TGI [25] greater than 100 µM, a GI50 [26] of 18.3 µM and a TGI [26] of 58.5 µM. For the same molecule, the GI50 [56] was 63.7 µM, the TGI [56] was greater than 100 µM and the GI50 [28] was 25.7 µM. The TGI [28] was 62.2 µM, the GI50 [29] was 31.5 µM and the TGI [29] was greater than 100 µM. The GI50 [30] was 20.7 µM, the TGI [30] was 48.4 µM and the GI50 [31] was 49.3 µM. The TGI [31] was 90.3 µM, the GI50 [32] was 18.4 µM and the TGI [32] was 37.4 µM. It also gave a GI50 [33] of 37.6 µM, a TGI [33] of 77.1 µM and a GI50 [57] of 21.9 µM. It also gave a TGI [57] of 58.3 µM, a GI50 [58] of 35.4 µM and a TGI [58] greater than 100 µM. The GI50 [34] was 32.7 µM, the TGI [34] was greater than 100 µM and the GI50 [35] was 24.8 µM. For the same molecule, the TGI [35] was 79.3 µM, the GI50 [36] was 38.7 µM and the TGI [36] was greater than 100 µM. For the same molecule, the GI50 [37] was 21.9 µM, the TGI [37] was 52.7 µM and the GI50 [38] was 44.1 µM. The TGI [38] was greater than 100 µM, the GI50 [39] was 70.3 µM and the TGI [39] was greater than 100 µM. The GI50 [40] was 46.4 µM, the TGI [40] was greater than 100 µM and the GI50 [41] was 32 µM. The TGI [41] was 71.8 µM, the GI50 [42] was 23.4 µM and the TGI [42] was 57.1 µM. It also gave a GI50 [44] of 29.9 µM, a TGI [44] greater than 100 µM and a GI50 [45] of 47.4 µM. The TGI [45] was greater than 100 µM, the GI50 [46] was 32 µM and the TGI [46] was 64.7 µM. It also gave a GI50 [47] of 39.9 µM, a TGI [47] greater than 100 µM and a GI50 [48] of 34.2 µM. For the same molecule, the TGI [48] was greater than 100 µM, the GI50 [49] was 23.7 µM and the TGI [49] was 49.5 µM. It also gave a GI50 [50] of 67.1 µM, a TGI [50] greater than 100 µM and a GI50 [51] of 28.1 µM. For the same molecule, the TGI [51] was greater than 100 µM.
